Usually melting point stands for the temperature of the solid-liquid transition. The term IC50 denotes the concentration that gives 50% inhibition.

Structures can show the parent of a compound that is named as a salt. Some results are limits rather than exact numbers.

This is an account of results in US10611778B2, “Fused bicyclic inhibitors of menin-MLL interaction” (Janssen Pharmaceutica NV, priority 2016, dated 2020).

Data set [1] addresses T1, Menin/MLL (terbium chelate-labeled menin, FITC-MBM1 peptide) (Homo sapiens, UniProt O00255, T541A).
T1 construct: Menin (a.a. 1-610-6×his tag) was labeled with terbium cryptate as follows
T1 sequence (O00255 with tags, fused parts or gaps T541A): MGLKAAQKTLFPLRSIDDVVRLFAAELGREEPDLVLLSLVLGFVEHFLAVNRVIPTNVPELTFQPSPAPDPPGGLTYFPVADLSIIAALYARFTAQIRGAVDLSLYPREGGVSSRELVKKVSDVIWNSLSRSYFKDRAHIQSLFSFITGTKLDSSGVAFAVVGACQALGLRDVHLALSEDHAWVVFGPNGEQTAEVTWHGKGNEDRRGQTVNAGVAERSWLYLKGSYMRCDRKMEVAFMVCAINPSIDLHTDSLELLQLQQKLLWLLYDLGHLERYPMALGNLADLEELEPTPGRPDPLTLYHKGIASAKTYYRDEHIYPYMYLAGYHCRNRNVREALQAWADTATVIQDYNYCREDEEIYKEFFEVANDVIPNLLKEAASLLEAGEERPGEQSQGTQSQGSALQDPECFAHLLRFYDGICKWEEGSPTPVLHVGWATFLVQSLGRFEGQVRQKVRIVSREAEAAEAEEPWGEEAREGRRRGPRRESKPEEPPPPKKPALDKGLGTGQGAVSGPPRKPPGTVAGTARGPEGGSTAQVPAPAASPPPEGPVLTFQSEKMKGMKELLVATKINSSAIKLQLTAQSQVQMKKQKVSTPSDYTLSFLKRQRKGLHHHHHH
As to the kind of experiment: Menin/MLL homogenous time-resolved fluorescence (HTRF) assay. Conditions: averaged values over all measurements; read-out: Menin HTRF assay (IC50). The format is binding. Summed up: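 Compound preincubated 5 min with terbium-cryptate-labeled menin (aa 1-610, His-tagged; 100 pM final), then 75 nM FITC-MBM1 peptide added, 15 min at ambient temperature; 0.5% DMSO, Tris pH 7.5 buffer. HTRF ratio 520/490 nm; % inhibition vs saturating competitor, IC50 from 11-point three-fold titration from 31 μM.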
Background: Time-resolved FRET reads energy transfer from a long-lived donor to a nearby acceptor.

For a further data set, the system named is MV-4-11. As to the kind of experiment: Proliferation assay (spheroid assay) MV-4-11. The format is cell-based, human. To be noted: Homo sapiens, MV4-11, MV-4-11; averaged values over all measurements; read-out: Spheroid assay MV-4-11 (IC50). Summed up:
(§1)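 Cells were grown as spheroids in ultra-low attachment round-bottom wells with compound (0.3% DMSO) for 8 d at 37 °C, imaged every 4 h, with confluence as spheroid size. AUC of confluence versus time (t=0 baseline) was expressed as % of DMSO control, and absolute IC50 came from a least-squares nonlinear fit.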

The test system of a further data set is KG1. As to the kind of experiment: Proliferation assay (spheroid assay) KG1 control cell line. Conditions: Homo sapiens, KG-1, averaged values over all measurements. The format is cell-based. The protocol:
(§2) The anti-proliferative effect of menin/MLL protein/protein interaction inhibitor test compounds was assessed in human leukemia cell lines. The cell lines MV-4-11 and MOLM14 harbor MLL translocations and express the MLL fusion proteins MLL-AF4 and MLL-AF9, respectively, as well as the wildtype protein from the second allele. […] K562 and KG1 were used as a control cell lines containing two MLL wildtype alleles in order to exclude compounds that display general cytotoxic effects.
(§3) MV-4-11 and MOLM14 were cultured in RPMI-1640 (Sigma Aldrich) supplemented with 10% fetal bovine serum (HyClone), 2 mM L-glutamine (Sigma Aldrich) and 50 μg/ml gentamycin (Gibco). K562 were propagated in RPMI-1640 (Sigma Aldrich) supplemented with 20% fetal bovine serum (HyClone), 2 mM L-glutamine (Sigma Aldrich) and 50 μg/ml gentamycin (Gibco). KG1 were cultured in Iscove's MDM (Gibco) supplemented with 20% fetal bovine serum (HyClone), 2 mM L-glutamine (Sigma Aldrich) and 50 μg/ml gentamycin (Gibco).
(§4) In order to assess the anti-proliferative effects, 1,500 MV-4-11, 300 MOLM14, 750 K562 or 1,300 KG1 cells were seeded in 200 μl media per well in 96-well round bottom, ultra-low attachment plates (Costar, catalogue number 7007). Cell seeding numbers were chosen based on growth curves to ensure linear growth throughout the experiment. Test compounds were added at different concentrations and the DMSO content was normalized to 0.3%. Cells were incubated for 8 d at 37° C. and 5% CO2. Spheroid like growth was monitored in real-time by live-cell imaging (IncuCyteZOOM, Essenbio, 4× objective) acquiring one image every four hours for 8 d. Confluence (%) as a measure of spheroid size was determined using an integrated analysis tool.
(§5) In order to determine the cumulative effect of the test compounds over time, the area under the curve (AUC) in a plot of confluence against time was calculated. Confluence at the beginning of the experiment (t=0) was used as baseline for the AUC calculation.
(§6) Absolute IC50 values were calculated according to the following procedure: % Control=(AUC sample/AUC control)*100
(§7) AUC control=mean AUC of control values (cells without compound/DMSO as vehicle control)
(§8) A non-linear curve fit was applied using the least squares (ordinary) fit method to the plot of % control versus compound concentration. Based on this, the absolute IC50 value (half maximal inhibitory concentration of the test compound causing an anti-proliferative effect of 50% relative to the vehicle control) was calculated.

The test system of a further data set is MOLM14. Put plainly: Proliferation assay (spheroid assay) MOLM14. The format is cell-based, human. To be noted: Homo sapiens, MOLM-14, MOLM14; averaged values over all measurements; read-out: Spheroid assay MOLM14 (IC50). An outline of the steps: as §1
A further data set deals with K562. Put plainly: Proliferation assay (spheroid assay) K562 control cell line. The format is cell-based. To be noted: Homo sapiens; K562 control cell line; averaged values over all measurements; read-out: Spheroid assay K562 (IC50). The protocol: as §2, §3, §4, §5, §6, §7, §8

As for `FC(F)(F)Cc1cc2c(N3CCC4C(CCN4Cc4ncc[nH]4)C3)ncnc2s1` (stereo not shown) (as salt: HCl) [Compound 22], the melting point stood at 140 °C.
The same measure, in the same setting: then `CC(C)CN1CCC2CN(c3ncnc4sc(CC(F)(F)F)cc34)CCC21` (stereo not shown) (as salt: HCl) [Compound 25], with 140 °C.
For `Cn1cc(CN2CC[C@H]3CN(c4ncnc5sc(CC(F)(F)F)cc45)C[C@H]3C2)cn1` (single isomer, unassigned) [Compound 71B], the IC50 is 0.054 µM in data set [1]; 0.42 µM in the data set with MV-4-11; above 15 µM in the data set on KG1; 2.2 µM in the data set with MOLM14; above 15 µM with K562.
`CC(C)CN1CC[C@H]2CN(c3ncnc4sc(CC(F)(F)F)cc34)C[C@H]2C1` (single isomer, unassigned) [Compound 69]: the melting point turned out to be 109 °C. Also, the IC50 in data set [1] was 0.057 µM. Moreover, the IC50 in the data set with MV-4-11 was 1.8 µM.
Regarding `FC(F)(F)Cc1cc2c(N3C[C@H]4CCN(CC5CCOCC5)C[C@H]4C3)ncnc2s1` (single isomer, unassigned) [Compound 70], the melting point was 160 °C. In addition, the IC50 in data set [1] stood at 0.018 µM. Moreover, in the data set on MV-4-11, the IC50 was 0.56 µM. Also, the IC50 in the data set on KG1 was above 15 µM. In the data set with MOLM14, the 50% inhibitory concentration (IC50) is 1.4 µM. In the data set with K562, the IC50 is above 15 µM.
For `O=C([C@@H]1CC2(CC2)CN1)N1CC[C@@H]2CN(c3ncnc4sc(CC(F)(F)F)cc34)C[C@@H]2C1` (single isomer, unassigned) [Compound 81], the melting point worked out at 112 °C. Besides, in data set [1], the IC50 was found to be 0.41 µM. In addition, the 50% inhibitory concentration (IC50) in the data set with MV-4-11 came to 5.7 µM.
On to `CC(C)CN1CC[C@@H]2CN(c3ncnc4sc(CC(F)(F)F)cc34)C[C@@H]2C1` (single isomer, unassigned) [Compound 36], for which the IC50 in data set [1] is 0.015 µM; in the data set with MV-4-11 it was 0.22 µM; with KG1, above 15 µM; in the data set with MOLM14, 1.4 µM; in the data set with K562, above 15 µM.
In turn, `FC(F)(F)Cc1cc2c(N3C[C@@H]4CCN(Cc5ccccc5)C[C@@H]43)ncnc2s1` (single isomer, unassigned) [Compound 30] showed a melting point of 140 °C. Also, the IC50 in data set [1] was around 1.26 µM.
The compound `FC(F)(F)Cc1cc2c(N3C[C@@H]4CN(Cc5ccccc5)C[C@@H]43)ncnc2s1` [Compound 29] displayed a melting point of 134 °C. In addition, the IC50 in data set [1] was 3.45 µM.
`FC(F)(F)Cc1cc2c(N3C[C@H]4CCN(Cc5ccccc5)C[C@H]43)ncnc2s1` (single isomer, unassigned) [Compound 31] came in with a melting point of 150 °C. The IC50 in data set [1] turned out to be 1.08 µM.
In the case of `O=C([C@@H]1CC2(CC2)CN1)N1CC[C@H]2CN(c3ncnc4sc(CC(F)(F)F)cc34)C[C@H]2C1` (single isomer, unassigned) [Compound 82], the melting point was found to be 105 °C. Besides, in data set [1], the half-inhibitory concentration (IC50) was determined as 0.653 µM. In the data set with MV-4-11, the IC50 is 7.9 µM.
For `O=S(=O)(c1ccccc1)N1CC[C@@H]2CN(c3ncnc4sc(CC(F)(F)F)cc34)CC[C@@H]21` (as salt: HCl) (hydrate or solvate) [Compound 16], the melting point stood at 152 °C.
